Values joined by “and” are separate entries in the source; they are usually repeats but may differ in a detail not shown here. Equal entries are not always repeated. Where two headings read alike, the source gives them in different places. Marks after values point to notes of the source that are not given here.
Assays:
[1] = Clinical observations / behavioral signs in AC-MES studies; type: in vivo, mouse; conditions: male, CF-1, mouse, in vivo, read-out: plasma concentration of individual mouse showing behavioral signs (tremors, decreased activity, splayed hindlimbs)
Experimental: Any qualitative changes from normal behavior were recorded.
Five oral (PO) doses of Compound A were each tested in the AC-MES model. Thirty minutes after administration of Compound A at 1 mg/kg (n=8), 3 mg/kg (n=8), 5 mg/kg (n=16), 7.5 mg/kg (n=7), and 10 mg/kg (n=17) via oral gavage to male CF-1 mice (body weights 28.2 to 43.8 g), the mice underwent a 60 Hz corneal electrical stimulus (0.2 seconds duration, 40 mA). This stimulus elicited a tonic hindlimb extension in all vehicle-dosed animals. […] An observational neurological assessment (qualitative test) was also conducted at the time of testing as a tolerability screen. Terminal plasma and brain samples were collected from all animals to obtain the levels of Compound A concentration, and to understand the relationship between efficacy and drug concentration.
The Blinding and Randomization, Clinical Observations, AC-MES Assay, Sample Collection and Preparation, Plasma and Brain Samples Analysis, and Bioanalysis Procedures in Example 4 were identical to those used in Example 2.

[2] = system: 6 Hz psychomotor seizures in CF-1 mice; test: Mouse 6 Hz psychomotor seizure assay (34 milliampere, 3 s); type: in vivo
Experimental: It was evaluated whether the combination of both compounds is favorable or unfavorable for efficacy by dosing Compound A and Levetiracetam alone and in combination, each at a dose that produces sub-maximal efficacy on its own. […] Plasma and brain samples were analyzed to gain an understanding of how the combination of Compound A and Levetiracetam may affect pharmacokinetics and pharmacodynamics. […] 6 Hz Psychomotor Seizure Assay: […] The animal was then securely restrained and a pair of electrodes was applied to the eyes (Electro Convulsive Therapy Unit 57800, Ugo Basile). […] Data Processing and Analysis: Statistical data analysis was performed using GraphPad Prism (version 8.2.1). Dose-response data was analyzed using a Kruskal-Wallis test, followed by Dunn's multiple comparisons. […] Dose- and concentration-response curves were generated using the Hill Langmuir equation: […]

[3] = system: tonic hindlimb seizure following corneal stimulation in CF-1 mice; test: Mouse maximal electroshock (MES) assay, 60 Hz 50 mA corneal stimulation; type: in vivo; conditions: for IC50: Mus musculus
Experimental: The interaction of Compound A with other ASMs was evaluated after oral dosing in the mouse maximal electroshock (MES) assay to determine whether some combinations were favorable or unfavorable. Efficacy was quantified by calculating the fraction of animals with a tonic hindlimb seizure following corneal stimulation. Compound Preparation: Compound A was initially solubilized in DMSO. This solution was then added into a 0.5% methyl cellulose solution to create a more even and less aggregated compound suspension. Serial dilutions were prepared from the tube with the highest concentration of Compound A and the compound suspensions were further vortexed prior to animal dosing. The final concentration of DMSO was 5%, an amount with no apparent toxicity or neuroprotection in the MES assay. […] Animals: Adult male CF-1 albino mice (25-35 g) purchased from Harlan-Envigo were used. The mice were housed four per cage and had access to filtered water and chow ad libidum, throughout the experiment. MES Assay: Compounds were administered orally by gavage before testing unless indicated otherwise. During MES testing, a 60-Hz alternating current (50 mA) was delivered for 0.2 seconds through corneal electrodes to the mice. A drop of 0.5% Alcaine solution was placed on the eye prior to current delivery. The electrodes were subsequently placed gently onto the eyes of the animal and the electrical shock was initiated by triggering through a foot-pedal activator. The animals were restrained by hand and gently released as the shock was delivered and the seizure commenced. Animals were monitored for hind limb tonic extension as the end point for this test. Statistical analysis: All statistics were calculated using Prism version 7 software (Graphpad Software). The method used for each experiment is indicated in the results section. Concentration-response curves were calculated as best fits to the equation […] where X was the log of plasma concentration. Unless indicated otherwise, bottom was constrained to be 0. Top was constrained to be the value determined experimentally by vehicle control measurements. Compound A Dose Response: […]

[4] = Compound A 1 mg/kg PO, 0.5 h before assay
[5] = Compound A 1 mg/kg PO, 2 h before assay
[6] = Compound A 2 mg/kg PO, 0.5 h before assay
[7] = Compound A 2 mg/kg PO, 2 h before assay
[8] = Compound A 4 mg/kg PO, 0.5 h before assay
[9] = Compound A 4 mg/kg PO, 2 h before assay
[10] = Compound A 8 mg/kg PO, 0.5 h before assay
[11] = Compound A 8 mg/kg PO, 2 h before assay

## Cc1cc(N2CCc3cc(F)ccc3C2)cc(C)c1NC(=O)CC(C)(C)C [Compound A, N-[4-(6-fluoro-3,4-dihydro-1H-isoquinolin-2-yl)-2,6-dimethylphenyl]-3,3-dimethylbutanamide]
[1]; 7.5 mg/kg, Study 2B, Compound A 7.5 mg/kg group
  concentration at 30 min: 746 nM
[1]; 7.5 mg/kg, Study 4B, Compound A 7.5 mg/kg group
  concentration at 30 min: 750 nM
[1]; 10 mg/kg, Study 2A, Compound A 10 mg/kg group
  concentration at 30 min: 391 nM
[1]; 10 mg/kg, Study 4A, Compound A 10 mg/kg group
  concentration at 30 min: 390 nM
[1]; Study 2B, Compound A 10 mg/kg group, two mice
  concentration at 30 min: 608 nM
[2]; Compound A PO 1 h, Study 3A dose response curve
  ED20: 4 mg/kg and 4.13 mg/kg
[2]; Mus musculus, Compound A PO 1 h, Study 3A dose response curve
  ED50: 6.48 mg/kg
[2]; Mus musculus, Compound A PO 1 h, Study 3A, read-out: brain EC50
  EC50: 540 nM
[2]; Mus musculus, Compound A PO 1 h, Study 3A, read-out: plasma EC50
  EC50: 350 nM
[2]; Studies 3B+3C combined, Compound A 4 mg/kg PO 1 h alone
  Fraction Seizing: 13/14*
[2]; Study 3A, Compound A 1 mg/kg PO, 1 h
  Fraction Seizing: 8/8
[2]; Study 3A, Compound A 3 mg/kg PO, 1 h
  Fraction Seizing: 8/8
[2]; Study 3A, Compound A 5 mg/kg PO, 1 h
  Fraction Seizing: 5/8
[2]; Study 3A, Compound A 8 mg/kg PO, 1 h
  Fraction Seizing: 3/8
[2]; Study 3B, Compound A 4 mg/kg PO 1 h alone
  Fraction Seizing: 8/8
[2]; Study 3C, Compound A 4 mg/kg PO 1 h alone
  Fraction Seizing: 5/6*
[2]; Study 3C, Compound A 4 mg/kg PO alone
  animals protected from seizing: 1/7
[3]; Compound A 0.25 mg/kg PO 2 h alone (phenytoin study)
  fraction of animals without tonic seizures: 0/8
[3]; Compound A 0.75 mg/kg PO 2 h alone (phenytoin study)
  fraction of animals without tonic seizures: 2/8
[3]; Compound A 1 mg/kg
  reduction of the fraction with tonic seizures: 26.7%
[3]; Compound A 1 mg/kg PO 2 h
  maximum % seizures of fitted curve, reflecting efficacy of Compound A alone: 73.3%
[3]; Compound A 1 mg/kg PO 2 h + Vehicle IP 0.5 h (valproic acid study)
  number of mice without tonic seizures/total: 4/15
[3]; Compound A 1 mg/kg PO 2 h alone (levetiracetam study)
  fraction of mice without tonic seizures: 2/11
[3]; Compound A 1 mg/kg PO 2 h alone (phenytoin study)
  fraction of animals without tonic seizures: 2/8
[3]; [4]
  number of mice with tonic seizures/total number tested: 4/7
  percentage of mice protected from hindlimb tonic extensor component: 42.9%
[3]; [5]
  number of mice with tonic seizures/total number tested: 5/7
  percentage of mice protected from hindlimb tonic extension: 28.6%
[3]; [6]
  number of mice with tonic seizures/total number tested: 2/7
  percentage of mice protected from hindlimb tonic extensor component: 71.4%
[3]; [7]
  number of mice with tonic seizures/total number tested: 4/7
  percentage of mice protected from hindlimb tonic extension: 42.9%
[3]; Compound A 2.5 mg/kg PO 2 h alone (phenytoin study)
  fraction of animals without tonic seizures: 4/8
[3]; [8]
  number of mice with tonic seizures/total number tested: 1/7
  percentage of mice protected from hindlimb tonic extensor component: 85.7%
[3]; [9]
  number of mice with tonic seizures/total number tested: 2/7
  percentage of mice protected from hindlimb tonic extension: 71.4%
[3]; [10]
  number of mice with tonic seizures/total number tested: 3/7
  percentage of mice protected from hindlimb tonic extensor component: 71.4%
[3]; [11]
  number of mice with tonic seizures/total number tested: 1/7
  percentage of mice protected from hindlimb tonic extension: 85.7%
[3]; Compound A […] PO 2 h alone (levetiracetam study)
  fraction of mice without tonic seizures: 3/8
[3]; Compound A PO alone, data 2 hours after dosing, read-out: IC50 based upon brain concentration (inhibition of tonic seizures)
  IC50: 275 nM
[3]; Compound A PO alone, data 2 hours after dosing, read-out: IC50 based upon plasma concentration (inhibition of tonic seizures)
  IC50: 154 nM
[3]; Compound A alone (phenytoin study), read-out: IC50 for Compound A (inhibition of tonic seizures, plasma concentration)
  IC50: 147 nM
